Test results published in patent US12721821B2, “Plant essential oil amino acid composition and preparation method therefor” (COCRYSTAL TECHNOLOGY (JIAXING) CO., LTD, priority 2021, dated 2026).

Test: Vapor pressure from thermogravimetric analysis (TGA), kept at 80° C. for 100 minutes
Assay type: physicochemical
Settings: calculated from weight loss rate
Procedure: For thermogravimetric analysis (TGA) method, instrument model: Netzsch TG 209F3 thermogravimetric analyzer detection, temperature: 80° C. for 100 minutes, purge gas: 25 mL/min.
Thymol and/or carvacrol and L-proline and/or sarcosine were added to a ball mill according to the compositions shown in Table 2, and vibrated at a vibrating frequency of 30 Hz for a vibrating time of 20 minutes to obtain the compositions. The compositions were subjected to thermogravimetric analysis (TGA), kept at 80° C. for 100 minutes, and the vapor pressure of thymol and/or carvacrol and the compositions thereof were calculated according to the formula:
[formula] • wherein m is the mass of the sample at time t, −dm/dt is the weight loss rate per unit area, p is the saturated vapor pressure, α is the vaporization constant, T is the absolute temperature, R is the gas constant, and M is the molecule mass of the evaporated substance. Under vacuum condition, α=1. α can be considered as a constant when a protective gas is present.

Structure (SMILES)	vapor pressure (Pa) at 80° C.
Cc1ccc(C(C)C)cc1O [carvacrol]	242 Pa
Cc1ccc(C(C)C)c(O)c1 [thymol]	333 Pa
